Legend:
NPC−/− mice = assay: NPC1 in vivo pilot study: video recording and observation of condition; conditions: 10 mg/kg IP three times per week
Protocol: Eight treated (rHSP70) NPC^−/− versus eight control (PBS only) NPC^−/− controls. Mice were treated IP three times per week with either 10 mg/kg of rHSP70 or vehicle alone (PBS) from 3 weeks of age. Three control and three treated mice were sacrificed at 7 or 9 weeks old (i.e. after 4 or 6 weeks of treatment, respectively). Organs were perfused (PBS), weighed and frozen for biochemical and immunohistochemical analysis.
Due to the small number of animals remaining after the 7 and 9 week time points we were unable to draw any conclusions regarding increased survival.

[1] = system: U-2-OS osteosarcoma cells; assay: Uptake and localization of fluorochrome-labeled recombinant protein; format: cell-based, Human; conditions: 300 nM rHsp70-AF488, 24 h
Protocol: FIG. 2: Lysosomal Hsp70 stabilizes lysosomal membranes. (a) Representative confocal images of U-2-OS cells incubated with 300 nM rHsp70-AF488 (green) for 24 h, fixed and stained for lysosomal integral membrane protein-1 (LIMP-1; red). For co-localization with other organelle markers see FIG. 3. (b) U-2-OS cells were incubated with 300 nM rHsp70-AF488 for 24 h before quantification of rHsp70-AF488 in membranes (memb.) and supernatant (sup.) obtained by repeated freeze/thaw cycles and centrifugation the light membrane fraction (LMF). […] (c) Representative still images of U-2-OS cells exposed to photo-oxidation (acridine orange and blue light). The loss of lysosomal integrity is visualized by the loss of red and increase in green staining. (d and e) U-2-OS cells were incubated with indicated recombinant proteins (300 nM) for 24 h, and analyzed for lysosomal integrity upon photo-oxidation. When indicated, cells were treated with indicated siRNAs for 48 h prior to the addition of recombinant proteins (e). The values represent means±SD (standard deviation) for three (d) or five (e) independent experiments. Representative immunoblots of indicated proteins from U-2-OS cells left untreated or treated with control or Hsp70 siRNAs are shown on the right. Scale bars: 20 μm (a and c).
FIG. 3: Colocalization of endocytosed rHsp70-AF488 with lysosomes. […]

[2] = Surface plasmon resonance (BIAcore) BMP interaction; format: binding; conditions: acidic pH
Excerpt: Thus, we investigated the interaction of Hsp70 with palmitoyl-oleoyl-phosphatidylcholine (POPC) large unilamellar vesicles (LUVs) containing various membrane-associated anionic lipids, i.e. palmitoyl-oleoyl-phosphatidylserine (POPS; primarily in plasma membrane), cardiolipin (primarily mitochondrial) and BMP (primarily in late endosomes/lysosomes). Taking into account the increasingly acidic milieu of the endo-lysosomal compartment upon maturation to lysosomes, we compared the protein-lipid interactions in neutral (pH 7.4) and acidic (pH 6.0) conditions. […] As reported earlier for POPS, all negatively charged lipids enhanced the binding of rHsp70 to the liposomes at neutral pH approximately 4-fold irrespective of the charge density on the liposome surface (ranging from −1 to −2).
In order to investigate which part of the Hsp70 protein is responsible for the BMP binding, we measured the fluorescence shift of the tryptophans upon docking of rHsp70 and its mutants into BMP-containing liposomes. […] Next, we substituted the two tryptophans in Hsp70 with phenylalanines (W90F and W580F) and studied which tryptophan is responsible for the fluorescence shift induced by lipid binding. […] A more quantitative BIAcore analysis of the BMP—rHsp70 interaction confirmed that Hsp70 interacted with BMP mainly through its ATPase domain. […]

[3] = video recording at 9 and 10 weeks

Substance: rHsp70: recombinant (human) heat shock protein 70; in some tests labelled with Alexa Fluor 488
- condition at the point of culling (NPC−/− mice): deteriorated quite badly within the space of a few days
- activity and tremor on video (NPC−/− mice; [3]): more active and had increased tremor
- size and coat condition (NPC−/− mice; [3]): larger, with better coat condition
- uptake, co-localization and membrane binding [1]: effective uptake of rHsp70, its specific co-localization with late endosomal and lysosomal markers and binding to lysosomal membranes
- interaction with BMP (BIAcore) [2]: high affinity binding

From US10532085B2, “Methods for increasing intracellular activity of Hsp70” (Orphazyme A/S, priority 2010, dated 2020)
